Among the data in patent publication US9573930B2 (Quanticel Pharmaceuticals, Inc., priority 2014, dated 2017) are IC50 values, retold here.

Structures are written as SMILES. pIC50: −log10 of the molar value.

For this test, the target named is full-length human LSD1 (Homo sapiens (Human), UniProt O60341). The test can be described thus: In vitro enzyme inhibition assay LSD-1 (TR-FRET). The format is biochemical. As to conditions: H3K4me1-biotin peptide. As to the method: This assay determines the ability of a test compound to inhibit LSD1 demethylase activity.
The enzymatic assay of LSD1 activity is based on Time Resolved-Fluorescence Resonance Energy Transfer (TR-FRET) detection.
The ability of the compounds disclosed herein to inhibit LSD1 activity was quantified and the respective IC50 value was determined.
A general note: Time-resolved FRET reads energy transfer from a long-lived donor to a nearby acceptor.
`COc1ccc(-c2c(-c3ccc(C#N)c(F)c3)nc(N3CCC(N)CC3)n(C)c2=O)cn1` [Example 8, 4-[2-(4-amino-piperidin-1-yl)-5-(6-methoxy-pyridin-3-yl)-1-methyl-6-oxo-1,6-dihydro-pyrimidin-4-yl]-2-fluoro-benzonitrile]: the pIC50 (usually the negative decadic logarithm of the IC50, by convention in mol/L) is > 7.00. `Cn1cc2cc(-c3c(-c4ccc(C#N)c(F)c4)nc(N4CCC(N)CC4)n(C)c3=O)ccc2n1` [Example 37, 4-[2-(4-aminopiperidyl)-1-methyl-5-(2-methyl(2H-indazol-5-yl))-6-oxohydropyrimidin-4-yl]-2-fluorobenzenecarbonitrile]: the pIC50 is > 7.00. `Cn1c(N2CCC(N)CC2)nc(-c2ccc(C#N)c(F)c2)c(-c2ccc(N)cc2)c1=O` [Example 89, 4-[5-(4-aminophenyl)-2-(4-aminopiperidin-1-yl)-1-methyl-6-oxopyrimidin-4-yl]-2-fluorobenzonitrile]: the pIC50 was > 7.00. `Cn1c(N2CCC(N)CC2)nc(-c2ccc(C#N)c(F)c2)c(-c2ccc(S(C)(=O)=O)cc2)c1=O` [Example 105, 4-[2-(4-aminopiperidin-1-yl)-1-methyl-5-(4-methylsulfonylphenyl)-6-oxopyrimidin-4-yl]-2-fluorobenzonitrile]: the negative logarithm of the IC50 (pIC50) is > 7.00. With `Cn1c(N2CCC(N)CC2)nc(-c2ccc(C#N)c(F)c2)c(-c2ccc(F)c(F)c2)c1=O` [Example 104, 4-[2-(4-aminopiperidin-1-yl)-5-(3,4-difluorophenyl)-1-methyl-6-oxopyrimidin-4-yl]-2-fluorobenzonitrile], the pIC50 was > 7.00.

Turning to `CN(C)C1CCN(c2nc(-c3ccc(C#N)c(F)c3)c(-c3ccc4c(cnn4C)c3)c(=O)n2C)CC1` [Example 72, 4-[2-(4-dimethylamino-piperidin-1-yl)-1-methyl-5-(1-methyl-1H-indazol-5-yl)-6-oxo-1,6-dihydro-pyrimidin-4-yl]-2-fluoro-benzonitrile], the pIC50 is > 7.00. Take `COc1ccc(-c2c(-c3ccc(C#N)c(F)c3)nc(N(C)C[C@@H]3CCNC3)n(C)c2=O)cc1` (stereo in doubt) [Example 56, 2-fluoro-4-[5-(4-methoxy-phenyl)-1-methyl-2-(methyl-pyrrolidin-3-ylmethyl-amino)-6-oxo-1,6-dihydro-pyrimidin-4-yl]-benzonitrile]: the negative-log IC50 (pIC50) is > 7.00. The value for `Cc1ccc(-c2c(-c3ccc(C#N)cc3)nc(N3CCC(N)CC3)n(C)c2=O)cn1` [Example 4, 4-[2-(4-amino-piperidin-1-yl)-1-methyl-5-(6-methyl-pyridin-3-yl)-6-oxo-1,6-dihydro-pyrimidin-4-yl]-benzonitrile] was > 7.00; that for `CCOc1ncc(-c2c(-c3ccc(C#N)c(F)c3)nc(N3CCC(N)CC3)n(C)c2=O)cc1F` [Example 93, 4-[2-(4-aminopiperidin-1-yl)-5-(6-ethoxy-5-fluoropyridin-3-yl)-1-methyl-6-oxopyrimidin-4-yl]-2-fluorobenzonitrile] was > 7.00. On to `Cn1c(N2CCC(N)CC2)nc(-c2ccc(C#N)c(F)c2)c(C#N)c1=O` [Example 121, 2-(4-amino-piperidin-1-yl)-4-(4-cyano-3-fluoro-phenyl)-1-methyl-6-oxo-1,6-dihydro-pyrimidine-5-carbonitrile], for which the pIC50 was 6.00 to 7.00. Consider `COc1ccc(-c2c(-c3ccc(C#N)c(F)c3)nc(NC[C@@H]3CCNC3)n(C)c2=O)cc1` [Example 52, 2-luoro-4-{5-(4-methoxy-phenyl)-1-methyl-6-oxo-2-[(3R)-(pyrrolidin-3-ylmethyl)-amino]-1,6-dihydro-pyrimidin-4-yl}-benzonitrile], for which the pIC50 was > 7.00. As for `CNC(=O)c1ccc(-c2c(-c3ccc(C#N)c(F)c3)nc(N3CCC(N)CC3)n(C)c2=O)cn1` [Example 50, 5-[2-(4-amino-piperidin-1-yl)-4-(4-cyano-3-fluoro-phenyl)-1-methyl-6-oxo-1,6-dihydro-pyrimidin-5-yl]-pyridine-2-carboxylic acid methylamide], the pIC50 was > 7.00.

On to `Cn1c(N2CCC(N)CC2)nc(-c2ccncc2)c(-c2ccc3c(ccn3C)c2)c1=O` [Example 116, 2-(4-amino-piperidin-1-yl)-3-methyl-5-(1-methyl-1H-indol-5-yl)-6-pyridin-4-yl-3H-pyrimidin-4-one], for which the pIC50 was 6.00 to 7.00. As for `COc1ccc(-c2c(-c3ccc(C#N)c(F)c3)nc(N3CC[C@@H](N)[C@@H](F)C3)n(C)c2=O)cc1` [Example 78, 4-[2-((4R,3S)-4-amino-3-fluoro-piperidin-1-yl)-5-(4-methoxy-phenyl)-1-methyl-6-oxo-1,6-dihydro-pyrimidin-4-yl]-2-fluoro-benzonitrile], the pIC50 was > 7.00. For `COc1ccc(-c2c(-c3ccc(C#N)c(F)c3)nc(N(C)C[C@H]3CCNC3)n(C)c2=O)cc1` [Example 54, 2-fluoro-4-[5-(4-methoxy-phenyl)-1-methyl-2-(methyl-(3S)-pyrrolidin-3-ylmethyl-amino)-6-oxo-1,6-dihydro-pyrimidin-4-yl]-benzonitrile], the pIC50 was > 7.00. In the case of `Cn1c(N2CCC(N)CC2)nc(-c2ccc(C#N)cc2)c(-c2ccc(OCCO)cc2)c1=O` [Example 97, 4-[2-(4-aminopiperidin-1-yl)-5-[4-(2-hydroxyethoxy)phenyl]-1-methyl-6-oxopyrimidin-4-yl]benzonitrile], the pIC50 is > 7.00. In the case of `Cn1c(N2CCC(N)CC2)nc(-c2ccc(C#N)c(F)c2)c(-c2ccc3cn[nH]c3c2)c1=O` [Example 77, 4-[2-(4-amino-piperidin-1-yl)-5-(1H-indazol-6-yl)-1-methyl-6-oxo-1,6-dihydro-pyrimidin-4-yl]-2-fluoro-benzonitrile], the pIC50 is > 7.00.

As for `COc1ccc(-c2c(-c3ccc(C#N)c(F)c3)nc(N3CCC(N)CC3)n(CC(=O)O)c2=O)cc1` [Example 15, [2-(4-amino-piperidin-1-yl)-4-(4-cyano-3-fluoro-phenyl)-5-(4-methoxy-phenyl)-6-oxo-6H-pyrimidin-1-yl]-acetic acid], the pIC50 is > 7.00. For `COc1ccc(-c2c(-c3ccc(C#N)cc3)nc(N3CCCNCC3)n(C)c2=O)cn1` [Example 62], the pIC50 is > 7.00.

As to `COc1ccc(-c2c(-c3ccc(C#N)c(F)c3)nc(N3CCC(C)(N)CC3)n(C)c2=O)cc1F` [Example 32, 4-[2-(4-amino-4-methyl-piperidin-1-yl)-5-(3-fluoro-4-methoxy-phenyl)-1-methyl-6-oxo-1,6-dihydro-pyrimidin-4-yl]-2-fluoro-benzonitrile], the negative logarithm of the IC50 (pIC50) is > 7.00.

For `CNC1CCN(c2nc(-c3ccc(C#N)c(F)c3)c(-c3ccc4nn(C)cc4c3)c(=O)n2C)CC1` [Example 65, 2-fluoro-4-[1-methyl-2-(4-methylamino-piperidin-1-yl)-5-(2-methyl-2H-indazol-5-yl)-6-oxo-1,6-dihydro-pyrimidin-4-yl]-benzonitrile], the pIC50 is > 7.00. Take `Cn1c(N2CCC(N)CC2)nc(-c2ccc(C#N)c(F)c2)c(-c2ccc(N3CCCC3)nc2)c1=O` [Example 60, 4-[2-(4-amino-piperidin-1-yl)-1-methyl-6-oxo-5-(6-pyrrolidin-1-yl-pyridin-3-yl)-1,6-dihydro-pyrimidin-4-yl]-2-fluoro-benzonitrile]: the pIC50 was > 7.00. For `Cn1c(N2CCC(N)CC2)nc(-c2ccc(C#N)cc2)c(-c2ccc(C(N)=O)c(F)c2)c1=O` [Example 41, 4-[2-(4-aminopiperidyl)-6-(4-cyanophenyl)-3-methyl-4-oxo(3-hydropyrimidin-5-yl)]-2-fluorobenzamide], the pIC50 was > 7.00. The value for `CCOc1ccc(-c2c(-c3ccc(C#N)c(F)c3)nc(N3CCC(N)CC3)n(C)c2=O)cc1` [Example 95, 4-[2-(4-aminopiperidin-1-yl)-5-(4-ethoxyphenyl)-1-methyl-6-oxopyrimidin-4-yl]-2-fluorobenzonitrile] was > 7.00. Turning to `Cn1c(N2CCC(N)CC2)nc(-c2ccc(C#N)c(F)c2)c(-c2cccc(F)c2)c1=O` [Example 102, 4-[2-(4-aminopiperidin-1-yl)-5-(3-fluorophenyl)-1-methyl-6-oxopyrimidin-4-yl]-2-fluorobenzonitrile], the pIC50 was > 7.00. Turning to `Cn1c(N2CCC(N)CC2)nc(-c2ccc(C#N)c(F)c2)c(-c2ccc3[nH]ccc3c2)c1=O` [Example 73, 4-[2-(4-amino-piperidin-1-yl)-5-(1H-indol-5-yl)-1-methyl-6-oxo-1,6-dihydro-pyrimidin-4-yl]-2-fluoro-benzonitrile], the negative logarithm of the IC50 (pIC50) was > 7.00. `CNC1CCN(c2nc(-c3ccc(C#N)c(F)c3)c(-c3ccc(C)nc3)c(=O)n2C)CC1` [Example 21, 2-fluoro-4-[1-methyl-2-(4-methylamino-piperidin-1-yl)-5-(6-methyl-pyridin-3-yl)-6-oxo-1,6-dihydro-pyrimidin-4-yl]-benzonitrile]: the pIC50 was > 7.00.

For `CN(C)C1CCN(c2nc(-c3ccc(C#N)c(F)c3)c(-c3ccc4nn(C)cc4c3)c(=O)n2C)CC1` [Example 71, 4-[2-(4-dimethylamino-piperidin-1-yl)-1-methyl-5-(2-methyl-2H-indazol-5-yl)-6-oxo-1,6-dihydro-pyrimidin-4-yl]-2-fluoro-benzonitrile], the pIC50 was > 7.00. For `COc1ccc(-c2c(-c3ccc(C#N)c(F)c3)nc(N3CCCNCC3)n(C)c2=O)cc1F` [Example 46, 4-[2-[1,4]diazepan-1-yl-5-(3-fluoro-4-methoxy-phenyl)-1-methyl-6-oxo-1,6-dihydro-pyrimidin-4-yl]-2-fluoro-benzonitrile], the pIC50 was > 7.00. The value for `Cc1ccc(-c2c(-c3ccc(C#N)c(F)c3)nc(N3CCC(N(C)C)CC3)n(C)c2=O)cn1` [Example 82, 4-[2-(4-dimethylamino-piperidin-1-yl)-1-methyl-5-(6-methyl-pyridin-3-yl)-6-oxo-1,6-dihydro-pyrimidin-4-yl]-2-fluoro-benzonitrile] was > 7.00. The value for `CNC1CCN(c2nc(-c3ccc(C#N)c(F)c3)c(-c3ccc4c(cnn4C)c3)c(=O)n2C)CC1` [Example 87, 2-fluoro-4-[1-methyl-2-[4-(methylamino)piperidin-1-yl]-5-(1-methylindazol-5-yl)-6-oxopyrimidin-4-yl]benzonitrile] was > 7.00.
